From PubChem BioAssay (NCI)
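Compound exposure: 48 hours, 5 concentrations, 96-well plates. GI50 marks 50% less growth. TGI: total growth inhibition.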

Assays:
Experiment in all cases: NCI-60 cell line screen, 48 h
786-0 renal = tested on: 786-0 renal
A498 renal = tested on: A498 renal
A549 NSCLC = tested on: A549 NSCLC
ACHN renal = tested on: ACHN renal
BT-549 breast = tested on: BT-549 breast
CAKI-1 renal = tested on: CAKI-1 renal
CCRF-CEM leukemia = tested on: CCRF-CEM leukemia
COLO 205 colon = tested on: COLO 205 colon
DU-145 prostate = tested on: DU-145 prostate
EKVX NSCLC = tested on: EKVX NSCLC
HCC-2998 colon = tested on: HCC-2998 colon
HCT-116 colon = tested on: HCT-116 colon
HCT-15 colon = tested on: HCT-15 colon
HL-60(TB) leukemia = tested on: HL-60(TB) leukemia
HOP-62 NSCLC = tested on: HOP-62 NSCLC
HOP-92 NSCLC = tested on: HOP-92 NSCLC
HT29 colon = tested on: HT29 colon
IGROV1 ovarian = tested on: IGROV1 ovarian
K-562 leukemia = tested on: K-562 leukemia
KM12 colon = tested on: KM12 colon
LOX IMVI melanoma = tested on: LOX IMVI melanoma
M14 melanoma = tested on: M14 melanoma
MALME-3M melanoma = tested on: MALME-3M melanoma
MCF7 breast = tested on: MCF7 breast
MDA-MB-231 breast = tested on: MDA-MB-231 breast
MDA-MB-435 = tested on: MDA-MB-435
MDA-MB-468 breast = tested on: MDA-MB-468 breast
MOLT-4 leukemia = tested on: MOLT-4 leukemia
NCI-H226 lung = tested on: NCI-H226 lung

CC[C@]12C=CCN3CC[C@@]4(c5ccc(OC)cc5N(C)[C@H]4[C@@](O)(C(=O)OC)[C@@H]1OC(=O)CCCC[P+](c1ccc(C)cc1)(c1ccc(C)cc1)c1ccc(C)cc1)[C@@H]32
GI50 (786-0 renal): 902 nM
TGI (786-0 renal): 2370 nM
GI50 (A498 renal): 2090 nM
TGI (A498 renal): 5240 nM
GI50 (A549 NSCLC): 632 nM
TGI (A549 NSCLC): 2760 nM
GI50 (ACHN renal): 1800 nM
TGI (ACHN renal): 4590 nM
GI50 (BT-549 breast): 389 nM
TGI (BT-549 breast): 1150 nM
GI50 (CAKI-1 renal): 2850 nM
TGI (CAKI-1 renal): 7150 nM
GI50 (CCRF-CEM leukemia): 476 nM
TGI (CCRF-CEM leukemia): 2060 nM
GI50 (COLO 205 colon): 200 nM
TGI (COLO 205 colon): 384 nM
GI50 (DU-145 prostate): 728 nM
TGI (DU-145 prostate): 4310 nM
GI50 (EKVX NSCLC): 680 nM
TGI (EKVX NSCLC): 2590 nM
GI50 (HCC-2998 colon): 416 nM
TGI (HCC-2998 colon): 1510 nM
GI50 (HCT-116 colon): 342 nM
TGI (HCT-116 colon): 1460 nM
GI50 (HCT-15 colon): 2020 nM
TGI (HCT-15 colon): 4350 nM
GI50 (HL-60(TB) leukemia): 191 nM
TGI (HL-60(TB) leukemia): 560 nM
GI50 (HOP-62 NSCLC): 731 nM
TGI (HOP-62 NSCLC): 2000 nM
GI50 (HOP-92 NSCLC): 295 nM
TGI (HOP-92 NSCLC): 1160 nM
GI50 (HT29 colon): 268 nM
TGI (HT29 colon): 783 nM
GI50 (IGROV1 ovarian): 351 nM
TGI (IGROV1 ovarian): 1150 nM
GI50 (K-562 leukemia): 300 nM
TGI (K-562 leukemia): 1870 nM
GI50 (KM12 colon): 431 nM
TGI (KM12 colon): 1480 nM
GI50 (LOX IMVI melanoma): 541 nM
TGI (LOX IMVI melanoma): 1640 nM
GI50 (M14 melanoma): 558 nM
TGI (M14 melanoma): 1670 nM
GI50 (MALME-3M melanoma): 482 nM
TGI (MALME-3M melanoma): 1100 nM
GI50 (MCF7 breast): 278 nM
TGI (MCF7 breast): 1150 nM
GI50 (MDA-MB-231 breast): 238 nM
TGI (MDA-MB-231 breast): 654 nM
GI50 (MDA-MB-435): 472 nM
TGI (MDA-MB-435): 1520 nM
GI50 (MDA-MB-468 breast): 150 nM
TGI (MDA-MB-468 breast): 476 nM
GI50 (MOLT-4 leukemia): 451 nM
TGI (MOLT-4 leukemia): 1780 nM
GI50 (NCI-H226 lung): 336 nM
